Data: PubChem BioAssay AID248 (DTP/NCI, 2004)
Where “and” joins values, the source holds several entries; their conditions need not be identical. Equal values may be shown once. Toxic doses and inconclusive results are not listed. Rule as the data show it: active = T/C of 150% or more; inactive = T/C below 125%.

System: L1210 leukemia ip in BDF1 mice, survival T/C
Assay: NCI In Vivo Anticancer Drug Screen. Data for tumor model L1210 Leukemia (intraperitoneal) in B6D2F1 (BDF1) mice
Conditions: endpoint: mean survival time, higher = longer survival
In short: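 Value reflects the ratio of survival in compound-treated mice to survival in vehicle-treated controls, with both groups carrying the same transplanted tumor.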

[1] = dose: 100.0 mg/kg/injection, schedule: Q01DX001 (ip), vehicle: saline
[2] = dose: 200.0 mg/kg/injection, schedule: Q01DX001 (ip), vehicle: saline
[3] = dose: 400.0 mg/kg/injection, schedule: Q01DX001 (ip), vehicle: saline
[4] = dose: 50.0 mg/kg/injection, schedule: Q01DX001 (ip), vehicle: carboxymethylcellulose (CMC)
[5] = dose: 100.0 mg/kg/injection, schedule: Q01DX001 (ip), vehicle: carboxymethylcellulose (CMC)
[6] = dose: 200.0 mg/kg/injection, schedule: Q01DX001 (ip), vehicle: carboxymethylcellulose (CMC)
[7] = dose: 400.0 mg/kg/injection, schedule: Q01DX001 (ip), vehicle: carboxymethylcellulose (CMC)
[8] = dose: 5.0 mg/kg/injection, schedule: Q01DX009 (ip), vehicle: Klucel (hydroxypropylcellulose) (HPC)
[9] = dose: 5.0 mg/kg/injection, schedule: Q04DX003 (ip), vehicle: Klucel (hydroxypropylcellulose) (HPC)
[10] = dose: 10.0 mg/kg/injection, schedule: Q01DX009 (ip), vehicle: Klucel (hydroxypropylcellulose) (HPC)
[11] = dose: 10.0 mg/kg/injection, schedule: Q04DX003 (ip), vehicle: Klucel (hydroxypropylcellulose) (HPC)
[12] = dose: 100.0 mg/kg/injection, schedule: Q04DX003 (ip), vehicle: saline with Tween-80
[13] = dose: 200.0 mg/kg/injection, schedule: Q04DX003 (ip), vehicle: saline with Tween-80
[14] = dose: 100.0 mg/kg/injection, schedule: Q01DX009 (ip), vehicle: Klucel (hydroxypropylcellulose) (HPC)
[15] = dose: 200.0 mg/kg/injection, schedule: Q01DX009 (ip), vehicle: Klucel (hydroxypropylcellulose) (HPC)
[16] = dose: 100.0 mg/kg/injection, schedule: Q01DX009 (ip), vehicle: saline
[17] = dose: 100.0 mg/kg/injection, schedule: Q04DX003 (ip), vehicle: saline
[18] = dose: 200.0 mg/kg/injection, schedule: Q01DX009 (ip), vehicle: saline
[19] = dose: 200.0 mg/kg/injection, schedule: Q04DX003 (ip), vehicle: saline
[20] = dose: 400.0 mg/kg/injection, schedule: Q01DX009 (ip), vehicle: saline
[21] = dose: 400.0 mg/kg/injection, schedule: Q04DX003 (ip), vehicle: saline
[22] = dose: 50.0 mg/kg/injection, schedule: Q01DX009 (ip), vehicle: Klucel (hydroxypropylcellulose) (HPC)

Measured: T/C

O=C(/C=C/C(=O)n1ccc2ccccc21)n1ccc2ccccc21
inactive: dose: 50.0 mg/kg/injection, schedule: Q01DX001 (ip), vehicle: saline 95 % of control | [1] 95 % of control | [2] 101 % of control | [3] 95 % of control

[N-]=[N+]=NCCC[CH2][Pb]([c]1ccccc1)([c]1ccccc1)[c]1ccccc1
inactive: [4] 96 % of control | [5] 102 % of control | [6] 100 % of control | [7] 96 % of control

O=C(O)CCCC1CCCCC1.[Cu+2]
inactive: dose: 2.5 mg/kg/injection, schedule: Q01DX009 (ip), vehicle: Klucel (hydroxypropylcellulose) (HPC) 101 % of control | dose: 2.5 mg/kg/injection, schedule: Q04DX003 (ip), vehicle: Klucel (hydroxypropylcellulose) (HPC) 97 % of control | [8] 101 % of control | [9] 101 % of control | [10] 92 % of control | [11] 97 % of control

CCCCNCCC(SS)c1ccc(Cl)cc1 (stereo unspecified)
inactive: dose: 50.0 mg/kg/injection, schedule: Q01DX009 (ip), vehicle: saline with Tween-80 106 % of control | dose: 100.0 mg/kg/injection, schedule: Q01DX009 (ip), vehicle: saline with Tween-80 92 % of control | [12] 88 % of control | [13] 93 % of control

O=C1c2ccsc2C(=O)c2sccc21
inactive: dose: 100.0 mg/kg/injection, schedule: Q01DX001 (ip), vehicle: saline with Tween-80 103 % of control | dose: 200.0 mg/kg/injection, schedule: Q01DX001 (ip), vehicle: saline with Tween-80 92 % of control

CS(=O)(=O)NC(=O)C[P+](c1ccccc1)(c1ccccc1)c1ccccc1
inactive: [1] 96 % of control | [2] 89 % of control | [3] 98 % of control

O=C(O)c1cc(O)ccc1O
inactive: [12] 100 % of control | [13] 97 % of control

O=[N+]([O-])c1ccc2nc(-c3ccccc3)c(-c3ccccc3)nc2c1
inactive: [14] 102 % of control | dose: 100.0 mg/kg/injection, schedule: Q04DX003 (ip), vehicle: Klucel (hydroxypropylcellulose) (HPC) 98 % of control | [15] 105 % of control | dose: 200.0 mg/kg/injection, schedule: Q04DX003 (ip), vehicle: Klucel (hydroxypropylcellulose) (HPC) 104 % of control | dose: 400.0 mg/kg/injection, schedule: Q01DX009 (ip), vehicle: Klucel (hydroxypropylcellulose) (HPC) 96 % of control | dose: 400.0 mg/kg/injection, schedule: Q04DX003 (ip), vehicle: Klucel (hydroxypropylcellulose) (HPC) 104 % of control

COC(CN(C)CC(OC)OC)OC
inactive: [16] 107 % of control | [17] 97 % of control | [18] 96 % of control | [19] 112 % of control | [20] 98 % of control | [21] 105 % of control

CC(O)c1ccc2c(c1)Cc1ccccc1-2 (stereo unspecified)
inactive: [4] 104 % of control | [5] 91 % of control | [6] 91 % of control | [7] 91 % of control

C/C(=C/c1ccc(/C=C(\C)[N+](=O)[O-])cc1)[N+](=O)[O-]
inactive: dose: 10.0 mg/kg/injection, schedule: Q01DX001 (ip), vehicle: acetone 106 % of control

CN(C)CCSC1=CC(=O)c2ccccc2C1=O
inactive: dose: 0.78 mg/kg/injection, schedule: Q01DX009 (ip), vehicle: water 91 % of control | dose: 1.56 mg/kg/injection, schedule: Q01DX009 (ip), vehicle: water 92 % of control

CC(N)C(=O)NCC(=O)NCC(=O)O (stereo unspecified)
inactive: [16] 103 % of control | [17] 100 % of control | [18] 96 % of control | [19] 96 % of control | [20] 98 % of control | [21] 94 % of control

CN1C(=O)N(C)C(=O)C(Cc2ccccc2)(Cc2ccccc2)C1=O
inactive: dose: 10.0 mg/kg/injection, schedule: Q01DX001 (ip), vehicle: saline 109 % of control | dose: 20.0 mg/kg/injection, schedule: Q01DX001 (ip), vehicle: saline 105 % of control

C=C(Br)CNC(=O)CCC
inactive: dose: 5.0 mg/kg/injection, schedule: Q04DX003 (ip), vehicle: saline 92 % of control | dose: 10.0 mg/kg/injection, schedule: Q04DX003 (ip), vehicle: saline 97 % of control

C#CC1(NC(=S)NC(=O)c2ccccc2)CCCCC1
inactive: dose: 25.0 mg/kg/injection, schedule: Q01DX009 (ip), vehicle: Klucel (hydroxypropylcellulose) (HPC) 93 % of control | [22] 94 % of control | [14] 94 % of control and 88 % of control

O=C(Oc1c(Cl)c(Cl)c(Cl)c(Cl)c1Cl)c1cc(Cl)cc(Cl)c1Br
inactive: dose: 25.0 mg/kg/injection, schedule: Q04DX003 (ip), vehicle: saline with Tween-80 105 % of control | dose: 50.0 mg/kg/injection, schedule: Q04DX003 (ip), vehicle: saline with Tween-80 102 % of control | [12] 97 % of control and 91 % of control

C=CC(=O)Nc1cccc(OC(=O)NC(C)C)c1
inactive: [12] 89 % of control | [13] 97 % of control | dose: 400.0 mg/kg/injection, schedule: Q04DX003 (ip), vehicle: saline with Tween-80 103 % of control

O=C(Nc1ncc([N+](=O)[O-])s1)c1ccc([N+](=O)[O-])cc1Cl
inactive: [8] 94 % of control | [9] 100 % of control | [10] 92 % of control | [11] 95 % of control | dose: 20.0 mg/kg/injection, schedule: Q01DX009 (ip), vehicle: Klucel (hydroxypropylcellulose) (HPC) 99 % of control | dose: 20.0 mg/kg/injection, schedule: Q04DX003 (ip), vehicle: Klucel (hydroxypropylcellulose) (HPC) 94 % of control

O=C1C(c2ccccc2)=C(c2ccccc2)C(c2ccccc2)C1c1ccccc1 (stereo unspecified)
inactive: dose: 100.0 mg/kg/injection, schedule: Q04DX002 (ip), vehicle: gum acacia 100 % of control | dose: 200.0 mg/kg/injection, schedule: Q04DX002 (ip), vehicle: gum acacia 87 % of control | dose: 400.0 mg/kg/injection, schedule: Q04DX002 (ip), vehicle: gum acacia 90 % of control

CCCCCS(=O)(=O)N1CCCCCC1
inactive: dose: 100.0 mg/kg/injection, schedule: Q04DX002 (ip), vehicle: other 112 % of control | dose: 200.0 mg/kg/injection, schedule: Q04DX002 (ip), vehicle: other 87 % of control | dose: 400.0 mg/kg/injection, schedule: Q04DX002 (ip), vehicle: other 87 % of control

CN(C)C(=O)C1C2C=CC(C3CC23)C1C(=O)N(C)C (stereo unspecified)
inactive: [17] 95 % of control | [19] 90 % of control | [21] 95 % of control

Cc1cn(C2CC(O)C(CN)O2)c(=O)[nH]c1=O (stereo unspecified)
inactive: dose: 100.0 mg/kg/injection, schedule: Q01DX005 (ip), vehicle: saline 96 % of control | dose: 200.0 mg/kg/injection, schedule: Q01DX005 (ip), vehicle: saline 104 % of control

Cc1cc(=O)oc2ccc(OS(C)(=O)=O)cc12
inactive: [22] 90 % of control | [14] 101 % of control | [15] 90 % of control

O=C(CCN1CC1)N1CCOCC1
inactive: [17] 108 % of control | [19] 100 % of control | [21] 113 % of control
